# Measured values as given in patent US20160176859A1, “High-Throughput Assay for Identifying Small Molecules that Modulate AMP-activated Protein Kinase (AMPK)” (North Carolina Central University, priority 2013, published 2016).
# “Also recorded” adds a separate entry of the source. Read-outs that look alike come from different tables or passages of the source.
# Assays:
# [1] = molecular target: T1, full-length AMPK (rat His-α1, β1, γ1) (Rattus norvegicus, UniProt P54645+P80385); assay: MANT-ADP fluorescence displacement (binding) assay, full-length AMPK; conditions: for thiol-reactivity: binding curves in the presence and absence of DTT: 0-1 mM DTT
# T1 construct: Tricistronic vectors encoding full-length AMPK (rat His-α1, β1, γ1); made in house; host or cells: Rosetta cells (E. coli), tricistronic vector, gift of Dr. Uwe Schlattner
# T1 sequence (P54645 with tags, fused parts or gaps limits assumed): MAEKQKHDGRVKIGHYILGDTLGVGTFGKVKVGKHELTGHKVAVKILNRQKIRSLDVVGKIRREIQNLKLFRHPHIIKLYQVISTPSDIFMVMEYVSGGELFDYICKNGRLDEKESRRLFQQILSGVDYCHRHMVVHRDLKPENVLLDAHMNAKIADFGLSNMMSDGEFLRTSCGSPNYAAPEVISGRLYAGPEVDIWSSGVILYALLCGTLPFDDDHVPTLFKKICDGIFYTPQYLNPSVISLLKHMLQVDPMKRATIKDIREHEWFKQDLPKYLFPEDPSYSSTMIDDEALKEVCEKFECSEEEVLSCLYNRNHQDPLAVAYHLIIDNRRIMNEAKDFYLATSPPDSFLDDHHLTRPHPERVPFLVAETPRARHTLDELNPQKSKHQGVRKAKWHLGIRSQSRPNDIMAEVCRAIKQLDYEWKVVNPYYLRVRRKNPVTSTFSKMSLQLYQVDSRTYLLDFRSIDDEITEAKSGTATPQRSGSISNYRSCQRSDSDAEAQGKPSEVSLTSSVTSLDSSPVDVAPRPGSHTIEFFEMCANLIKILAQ
# T1 sequence (P80386 whole entry partner): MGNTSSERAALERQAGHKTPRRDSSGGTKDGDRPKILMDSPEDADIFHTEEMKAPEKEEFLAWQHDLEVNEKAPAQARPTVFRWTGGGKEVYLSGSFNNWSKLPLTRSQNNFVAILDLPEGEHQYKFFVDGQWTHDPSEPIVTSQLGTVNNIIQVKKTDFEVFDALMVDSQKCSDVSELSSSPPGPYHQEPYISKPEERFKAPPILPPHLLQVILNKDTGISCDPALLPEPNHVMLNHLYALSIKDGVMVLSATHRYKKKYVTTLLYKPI
# T1 sequence (P80385 whole entry): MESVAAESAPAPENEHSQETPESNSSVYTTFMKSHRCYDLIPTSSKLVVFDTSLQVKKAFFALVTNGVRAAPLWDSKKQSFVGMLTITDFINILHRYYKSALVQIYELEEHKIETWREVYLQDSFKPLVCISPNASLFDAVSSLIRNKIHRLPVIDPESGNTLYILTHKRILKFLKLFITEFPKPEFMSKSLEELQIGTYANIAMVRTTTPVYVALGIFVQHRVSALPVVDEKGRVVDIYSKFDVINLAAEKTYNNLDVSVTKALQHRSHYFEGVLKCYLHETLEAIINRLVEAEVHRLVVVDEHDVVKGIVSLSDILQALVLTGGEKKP
# Procedure: (§1) Except where otherwise noted, assays were performed with the following conditions: 0.5 μM full-length AMPK (130 kDa) or 0.5 μM regulatory fragment (66.7 kDa), 0.1 μM MANT-ADP, 10 mM Tris-HCl (pH 8), 0.45% DMSO (vehicle and negative control), and 5 μM ADP (positive control). Automated assays were assembled in two steps. First, a NanoQuot (BioTek) was used to dispense 11 μL of master mix (protein, MANT-ADP, and Tris-HCl) per well in black, low volume 384-well plates (Corning-3676). Next, a Biomek NX workstation (Beckman-Coulter, Brea, Calif.) equipped with pintools (VP Scientific, San Diego Calif.) was used to transfer 50 nL of controls (columns 1, 2, 23, and 24) and small molecules (4.5 μM final). Controls and library molecules were transferred from Axygen 384-well rigid PCR plates (Cat no. 321-67-051) at 221× concentration for single-concentration screening. Plates were shaken for 10 minutes prior to reading.
# (§2) Fluorescence emission spectra of MANT-ADP were collected using a PerkinElmer EnSpire plate reader with an excitation wavelength of 360 nm. Background fluorescence from protein was subtracted from the raw data prior to plotting MANT-ADP's fluorescence in the presence of protein. Fluorescence detection for assay development and screening was performed on either a BMG Pherastar Plus (360/10 excitation and 460/10 emission filters) or a PerkinElmer EnVision (355/40 excitation and 460/25 emission filters), depending on equipment availability. Relative fluorescence units (RFUs) were recorded at room temperature.
# (§3) ScreenAble (ScreenAble Solutions, Chapel Hill, N.C.) high-throughput screening software was utilized for merging screening data and chemical structure, for statistical design of experiments, and hit selection. GraphPad Prism was used for non-linear regression analysis of dose response data.
# (§4) Binding assays. Except where otherwise noted, assay assembly and data analysis were completed according to published methods. Binding assays were manually assembled, with the exception of the similarity screen. Automated assembly of the similarity screen was completed according to published methods. Analogs were cherry-picked from a 10 mM Asinex small molecule library and a 0.5 mM kinase focused library, which has been described previously (4). Molecules were screened at a final concentration of 45 and 2.3 μM, respectively.
# [2] = molecular target: T2, AMPK regulatory fragment (rat His-α1, 396-548; human β2, 187-272; rat γ1) (Rattus norvegicus, UniProt P80385); assay: MANT-ADP fluorescence displacement (binding) assay, AMPK regulatory fragment; conditions: inhibition of MANT-ADP fluorescence; for IC50: read-out: IC50 (data in parentheses)
# T2 construct: rat His-α1, 396-548; human β2, 187-272; rat γ1; made in house; host or cells: Rosetta cells (E. coli), tricistronic vector, gift of Dr. Steve Gamblin
# T2 sequence (P54645 407-559 partner limits assumed): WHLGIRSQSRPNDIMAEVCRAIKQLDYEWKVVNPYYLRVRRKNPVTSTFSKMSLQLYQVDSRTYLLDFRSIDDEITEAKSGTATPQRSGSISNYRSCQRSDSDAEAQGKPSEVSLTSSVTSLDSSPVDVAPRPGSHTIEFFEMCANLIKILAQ
# T2 sequence (O43741 187-272 partner limits assumed): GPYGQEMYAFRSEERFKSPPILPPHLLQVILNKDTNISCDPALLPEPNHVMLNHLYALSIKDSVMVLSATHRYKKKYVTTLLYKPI
# T2 sequence (P80385 whole entry, the tested form may be a part): as the sequence (P80385 whole entry) above
# Procedure: as §1, §2, §3, §4
# [3] = test system: phospho-AMPKα in HEK cells; assay: Western blot of treated HEK cells for phospho-AMPKα (Example 3); format: cell-based, human; conditions: for AMPK modulatory activity / phospho-AMPKα (Western blot, FIG. 7): HEK cells; for phospho-AMPKα (Western blot, FIG. 7): standardized to tubulin; for phospho-AMPK (FIG. 8): human Hek293 cells
# Procedure: Approximately 50 compounds will be tested from those identified above using the methods and assays described herein on HEK cells in culture in 6 well plate format for their ability to enter cells and modulate AMPK, initially at 1 μM, 2 μM, 10 μM and 20 μM compound in 0.1% DMSO. […] Molecular biology of the cell 23, 381-389, doi:10.1091/mbc.E11-08-0699 (2012)). Examples of this approach with compounds identified from our preliminary screening that have AMPK modulatory activity are shown in FIG. 7. […] See also FIG. 8. […] By testing under multiple conditions, the likelihood of identifying agonists and antagonists of AMPK activity in vivo, and particularly those that are not dependent on a particular means of altering AMPK activity may increase.
# The phosphorylation status of AMPKα with a phospho-specific antibody (against the activation/T-loop threonine 172) (Cell Signaling) will be quantified. […] Molecular biology of the cell 21, 3433-3442, doi:10.1091/mbc.E10-04-0347 (2010)) (FIG. 7). […] In addition, phospho-ACC (Cell Signaling) will be measured by western blot. Cytoplasmic acetyl coenzyme A carboxylase (ACC) is the best known AMPK direct downstream target, and is a rate-limiting enzyme in the energy consuming process of fatty acid synthesis (Davies, S. P. et al. Purification of the AMP-activated protein kinase on ATP-gamma-sepharose and analysis of its subunit structure. European journal of biochemistry/FEBS 223, 351-357 (1994); Carling, D., Zammit, V. A. & Hardie, D. G. A common bicyclic protein kinase cascade inactivates the regulatory enzymes of fatty acid and cholesterol biosynthesis. FEBS Lett 223, 217-222 (1987)). Phospho-ACC will be standardized to both tubulin and total (non-phospho) ACC to ensure we are not measuring changes in total ACC levels. Compounds that modulate phospho-AMPKα and phospho-ACC status in the same direction (both increase or both decrease) will be prioritized over compounds that produce different affects on AMPKα versus ACC phosphorylation for in vitro kinase or phosphatase protection assays.
# [4] = molecular target: T3, purified p-AMPK (Rattus norvegicus, UniProt P54645+P80385); assay: Kinase assay with purified p-AMPK and GST-ACC peptide; format: biochemical; conditions: compared to DMSO control
# T3 construct: Full-length AMPK intended for use in phosphatase and kinase assays was purified, mixed with GST-CaMKKβ; made in house; host or cells: Rosetta cells (E. coli); phosphorylated in vitro with GST-CaMKKβ, which was then removed on glutathione resin
# T3 sequence (P54645 with tags, fused parts or gaps limits assumed): as the sequence (P54645 with tags, fused parts or gaps limits assumed) above
# T3 sequence (P80386 whole entry partner): as the sequence (P80386 whole entry partner) above
# T3 sequence (P80385 whole entry): as the sequence (P80385 whole entry) above
# Procedure: Kinase assays. Assay conditions were adapted from published methods (17). The final assay buffer was comprised of 40 mM Hepes (pH 7.4) 5 mM MgCl2, 200 μM ATP, 75 mM NaCl, 0.01% Triton X-100, 1 mM DTT, and 0.45% DMSO (vehicle). Because some analogs had poor solubility at high concentrations, all analogs and controls were diluted in assay buffer and centrifuged (1 min, 5000 rpm, 4° C.) to remove insoluble matter. GST-ACC peptide and p-AMPK were thawed, diluted in assay buffer, and then added to the supernatant at final concentrations of 900 and 0.1 ng/μL, respectively. Kinase assays were assembled on ice; reactions were allowed to proceed for 30 minutes at room temperature. Reactions were stopped by the addition of loading buffer and 48 mM DTT followed promptly by freezing at −20° C.
# (§5) Western analyses. Protein samples were boiled for 15 minutes in loading buffer and DTT prior to SDS-PAGE. Blots for protein-based assays were sequentially incubated with the following: 5% BSA in 1× TBS (1 hr, 22° C.), 1:1000 rabbit anti-human p-AMPK-α antibody or p-ACC antibody (2 hr, 22° C.), and 1:10,000 donkey anti-rabbit secondary antibody (1 hr, 22° C.). Blots for phosphatase assays were probed a second time using 1:100 mouse anti-human total AMPK antibody (overnight, 4° C.; from UNC Antibody Core Facility) followed by 1:10,000 donkey anti-mouse secondary antibody (1 hr, 22° C.). Blots for clarified cell lysates were sequentially probed for p-AMPK (1:500 dilution, overnight at 4° C. or 4 hours at 22° C.), total ACC (1:1000 dilution, overnight at 4° C. or 4 hours at 22° C.), and tubulin (1:10,000 dilution, 1 hr, 22° C.); a parallel set of blots were probed for p-ACC (1:500 dilution, overnight at 4° C. or 4 hours at 22° C.), total AMPK (1:1000 dilution, overnight at 4° C. or 4 hours at 22° C.), and tubulin (1:10,000 dilution, 1 hr, 22° C.). Because phosphorylated and total protein were imaged on separate membranes, the signals were normalized to the internal tubulin signal prior to calculating the ratio of phosphorylated to total protein. Scanning and imaging were completed according to published methods.
# [5] = test system: p-ACC levels in HEK cells; assay: Cell-intact assay, p-ACC levels in HEK cells; format: cell-based, human
# Procedure: Cell-intact assays. HEK cells were grown in DMEM with 10% FBS and 1% penicillin/streptomycin at 37° C. A subset of plates was serum-starved for 5 hours on the day of the experiment. After 5 hours of serum-starvation, cells were treated with either controls (0.2% DMSO, A-769662, or Compound C) or small molecules in the absence of serum for an additional hour prior to lysis. Another subset of plates was serum-starved for 6 hours and then treated with either controls or small molecules for 1 hour in the presence of 10% FBS. A time course of both AMPK and ACC phosphorylation in HEK cells during serum starvation has already been published (Pirkmajer S, Chibalin A V. Serum starvation: caveat emptor. American journal of physiology Cell physiology. 2011 August; 301(2):C272-9. PubMed PMID: 2161361).
# After incubating in the presence of drugs for one hour, cells were washed three times with ice-cold PBS and lysed according to published methods (Kazgan N, Williams T, Forsberg L J, Brenman J E. Identification of a nuclear export signal in the catalytic subunit of AMP-activated protein kinase. Molecular biology of the cell. 2010 Oct. 1; 21(19):3433-42. PubMed PMID: 20685962. Pubmed Central PMCID: 2947478). Lysates were centrifuged at 16,000 g (10 minutes, 4° C.). Clarified supernatant (30 μL) was then transferred to 10 μL 4X loading buffer and 2 μL 1 M DTT. Samples were immediately frozen at −20° C. The concentration of protein in diluted clarified supernatant was calculated using a DC protein assay kit (BioRad) prior to western analyses.
# as §5
# [6] = full-length AMPK, inhibition of MANT-ADP fluorescence
# [7] = full-length AMPK, inhibition of MANT-ADP fluorescence, read-out: IC50
"Hill slope [1, 6]","IC50 [1, 7] [nM]",Hill slope (data in parentheses) [2],IC50 [2] [nM],"Hill slope ([1]; full-length AMPK, Example 4)","IC50 ([1]; full-length AMPK, Example 4, read-out: binding IC50) [nM]","activity of purified p-AMPK (phosphorylation of GST-ACC peptide), dose response [4]","IC50 ([1]; 1 mM DTT, read-out: extrapolated IC50 in the presence of DTT) [nM]",SMILES,thiol-reactivity: binding curves in the presence and absence of DTT [1],AMPK modulatory activity [3],"phospho-AMPKα (Western blot, FIG. 7) [3]",phospho-AMPK (FIG. 8) [3],"p-ACC levels, serum-treated HEK cells ([5]; 10% serum)","p-ACC levels, serum-starved HEK cells ([5]; serum-starved, 1 hour treatment)"
1.1,300,2.6,200,,,,,COc1cc(C(=O)/C=C/c2cc(O)c(O)c(Cl)c2)cc(OC)c1OC [Example Z64358107],,,,,,
1.4 (1.4),2900,1.4 (1.4),1600,1.2,9000,,,"Cc1ccc(-c2ccc(/C=C3\SC(=S)N(CC(=O)O)C3=O)o2)cc1 [STK740822, 2-{(5Z)-5-{[5-(4-Methylphenyl)furan-2-yl]methylidene}-4-oxo-2-sulfanylidene-1,3-thiazolidin-3-yl}acetic acid]",not thiol-reactive,activating activity,increased,increase,,
,,,,,,dose-dependently inhibited,,"O=C1/C(=C/c2ccc(-c3ccc(F)cc3)o2)SC(=S)N1CCS(=O)(=O)O [STK823366, 2-[(5Z)-5-{[5-(4-fluorophenyl)furan-2-yl]methylidene}-4-oxo-2-sulfanylidene-1,3-thiazolidin-3-yl]ethane-1-sulfonic acid]",,,,,decreased phosphorylation; also recorded: decreases,decreased phosphorylation
1.3,2700,1.4,1500,,,,~250000,O=C1Nc2ccc(Br)cc2/C1=C1/SC(=S)N(C(Cc2ccccc2)C(=O)O)C1=O (centres unmarked) [STL035166],dramatically different dose response curve,inhibitory activity,decreased,increase,,
